Results reported in US20160367623A1, “AGONISTS OF GUANYLATE CYCLASE USEFUL FOR THE TREATMENT OF GASTROINTESTINAL DISORDERS, INFLAMMATION, CANCER AND OTHER DISORDERS” (priority 2015, published 2016).
Bridge positions count the residues as written; N and C are the ends. Ends that are not written are not given here.

What was measured:
[1] = tested on: patients with chronic idiopathic constipation (CIC); assay: First phase 3 CIC trial: durable overall CSBM responders (primary endpoint); assay type: in vivo, human; parameters: Odds Ratio (adjusted), durable overall CSBM responders: reference not given here; settings: for Non-Responders, % / Durable Overall CSBM Responders, %: ITT; for Durable Overall CSBM Responders, %: MRA; for proportion of durable overall responders: 12-week treatment, intention-to-treat population, placebo 10.2%; for Odds Ratio (adjusted), durable overall CSBM responders / Difference in Proportions (adjusted), responders minus placebo: adjusted for gender; for Odds Ratio (adjusted), durable overall CSBM responders: CMH
Excerpt: Both trials include a two-week pre-treatment baseline period, a 12-week treatment period, and a two-week post-treatment period. The phase 3 CIC program was designed to support regulatory submission in the U. S.
The primary endpoint for both trials is the proportion of durable overall responders (%), which is the current regulatory endpoint required for U.S. approval in CIC. The FDA has defined a durable overall responder as a patient who fulfills both ≧3 complete spontaneous bowel movements (CSBMs) per week plus an increase of ≧1 CSBM from baseline in the same week, for 9 out of the 12 treatment weeks. In addition, the same patient must be an overall responder for at least 3 of the last 4 treatment weeks in order to be considered a durable overall responder.
Patients were selected using Rome 3 criteria modified for CIC and had (1) fewer than 3 defecations per week, (2) loose stools occurring rarely without laxatives, (3) inadequate criteria for irritable bowel syndrome with constipation (IBS-C), and (4) at least two of the following applied to at least 25% of defecations: (a) straining during evacuation, (b) lumpy or hard stools, (c) sensation of anorectal obstruction or blockage. Rome 3 requires patients to fulfill the criteria for the last 3 months with symptom onset at least 6 months prior to diagnosis.

[2] = tested on: patients with chronic idiopathic constipation (CIC); settings: in vivo

Asn^1-Asp^2-Glu^3-Cys^4-Glu^5-Leu^6-Cys^7-Val^8-Asn^9-Val^10-Ala^11-Cys^12-Thr^13-Gly^14-Cys^15-Leu^16 (NDECELCVNVACTGCL; disulfide 4-12, 7-15) [Plecanatide]
Non-Responders, % ([1]; 3 mg (N = 453)): 79.0%
Durable Overall CSBM Responders, % ([1]; 3 mg (N = 453)): 21.0%
proportion of durable overall responders ([1]; 3.0 mg once-a-day): 21.0%
Odds Ratio (adjusted), durable overall CSBM responders ([1]; 3 mg vs placebo): 0.429
Difference in Proportions (adjusted), responders minus placebo ([1]; 3 mg): 0.107
Non-Responders, % ([1]; 6 mg (N = 441)): 80.5%
Durable Overall CSBM Responders, % ([1]; 6 mg (N = 441)): 19.5%
proportion of durable overall responders ([1]; 6.0 mg once-a-day): 19.5%
Odds Ratio (adjusted), durable overall CSBM responders ([1]; 6 mg vs placebo): 0.469
Difference in Proportions (adjusted), responders minus placebo ([1]; 6 mg): 0.094
Non-Responders, % ([1]; Active Combined (N = 894)): 79.8%
Durable Overall CSBM Responders, % ([1]; Active Combined (N = 894)): 20.2%
serum chemistries, hematology, urinalysis, ECG or vital signs [2]: No clinically relevant abnormalities were observed
